This is an account of results in patent US20110172147A1, “NEUROPEPTIDE-2 RECEPTOR (Y-2R) AGONISTS” (priority 2009, published 2011).

Holding throughout (format): cell-based
The target of one assay is T1, Y1R (Homo sapiens, UniProt P25929).
T1 sequence (P25929 1-384): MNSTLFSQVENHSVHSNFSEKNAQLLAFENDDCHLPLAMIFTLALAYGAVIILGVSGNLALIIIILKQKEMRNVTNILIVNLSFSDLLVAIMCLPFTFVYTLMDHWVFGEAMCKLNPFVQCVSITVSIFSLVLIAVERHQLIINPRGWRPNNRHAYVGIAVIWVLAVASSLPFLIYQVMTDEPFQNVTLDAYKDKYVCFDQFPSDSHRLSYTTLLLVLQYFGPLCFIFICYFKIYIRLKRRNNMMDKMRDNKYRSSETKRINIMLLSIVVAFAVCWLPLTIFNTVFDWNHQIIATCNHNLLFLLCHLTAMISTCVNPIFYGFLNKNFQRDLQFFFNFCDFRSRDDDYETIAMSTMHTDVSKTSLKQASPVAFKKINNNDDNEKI
In words: CaFlux Assay (FLIPR), Y1R.

For a further assay, the target named is Y4R (Homo sapiens, UniProt P50391). Kind of assay: CaFlux Assay (FLIPR), Y4R.
The target of another assay is T2, Y5R (Homo sapiens, UniProt Q15761).
T2 sequence (Q15761 1-445): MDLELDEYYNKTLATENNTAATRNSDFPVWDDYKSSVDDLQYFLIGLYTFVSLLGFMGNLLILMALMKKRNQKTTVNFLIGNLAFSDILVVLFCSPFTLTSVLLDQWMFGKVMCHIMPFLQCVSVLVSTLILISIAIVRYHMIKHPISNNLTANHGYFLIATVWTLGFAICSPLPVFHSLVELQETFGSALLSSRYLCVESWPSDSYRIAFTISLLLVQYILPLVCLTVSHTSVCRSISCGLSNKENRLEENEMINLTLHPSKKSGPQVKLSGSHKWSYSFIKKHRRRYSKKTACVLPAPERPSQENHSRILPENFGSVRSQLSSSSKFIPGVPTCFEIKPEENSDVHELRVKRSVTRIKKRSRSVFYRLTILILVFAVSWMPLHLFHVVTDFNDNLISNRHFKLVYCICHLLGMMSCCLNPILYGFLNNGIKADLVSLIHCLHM
Kind of assay: CaFlux Assay (FLIPR), Y5R.

For assay [1], the target named is T3, hNPY2R (Homo sapiens, UniProt P49146).
T3 sequence (P49146 1-381): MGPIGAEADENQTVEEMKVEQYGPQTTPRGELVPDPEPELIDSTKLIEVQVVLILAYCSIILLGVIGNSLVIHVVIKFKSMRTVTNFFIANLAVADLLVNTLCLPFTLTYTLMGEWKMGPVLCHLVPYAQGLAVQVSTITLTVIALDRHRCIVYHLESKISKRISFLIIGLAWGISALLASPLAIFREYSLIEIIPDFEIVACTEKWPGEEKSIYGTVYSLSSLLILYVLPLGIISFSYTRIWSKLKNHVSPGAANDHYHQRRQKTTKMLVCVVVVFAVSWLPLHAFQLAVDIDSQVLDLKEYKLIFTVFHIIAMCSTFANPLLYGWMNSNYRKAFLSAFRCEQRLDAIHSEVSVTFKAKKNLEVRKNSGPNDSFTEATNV
Kind of assay: cAMP Agonist Assay, HEK293/hNPY2R. Further details: expressed in transfected cells; host or cells: HEK293/hNPY2R (G418 selection). A digest of the protocol:
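Intracellular cAMP quantified by luminescent competitive ELISA after a 30 min room-temperature treatment of overnight-plated HEK293/hNPY2R cells with compound in medium containing 5 μM forskolin, 0.5 mM IBMX and 1.1% DMSO; four replicates per concentration.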

Assay [2] addresses T3, hNPY2R. In words: CaFlux Assay (FLIPR), Y2R. Further details: expressed in transfected cells; host or cells: HEK-293 stably transfected with G protein chimera Gαqi9. A digest of the protocol: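 Read-out was the peak increase in Calcium-3 fluorescence on FLIPR, monitored 100 s after compound addition, with each well's pre-stimulation reading as zero and data given as % of the positive control's maximal response. Cells were HEK-293 stably carrying Gαqi9 plus receptor.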

*1 amine or outer side, *2 acyl side, *3 side chain or, on linkers, in order; H or OH if unused. Where a SMILES comes first, the peptide text is derived from it. [ ]: non-standard residue; d: D form. The star is where a group is joined. MeO(CH2CH2O)23CH2CH2CO = COCCOCCOCCOCCOCCOCCOCCOCCOCCOCCOCCOCCOCCOCCOCCOCCOCCOCCOCCOCCOCCOCCOCCOCCC(=O)*; CH3O(CH2CH2O)11CH2CH2CO = COCCOCCOCCOCCOCCOCCOCCOCCOCCOCCOCCOCCC(=O)*; X1 = O=C(Cn1cnc2ccc(N3CCN([*:1])CC3)cc2c1=O)[*:2]; Arachidoyl = CCCCCCCCCCCCCCCCCCCC(=O)*; NMeR = CN[C@@H](CCCNC(=N)N)C(=O)O; Cit = NC(=O)NCCC[C@H](N)C(=O)O; Guanidino = N=C(N)N*

Chain of Y4R (P50391 whole entry): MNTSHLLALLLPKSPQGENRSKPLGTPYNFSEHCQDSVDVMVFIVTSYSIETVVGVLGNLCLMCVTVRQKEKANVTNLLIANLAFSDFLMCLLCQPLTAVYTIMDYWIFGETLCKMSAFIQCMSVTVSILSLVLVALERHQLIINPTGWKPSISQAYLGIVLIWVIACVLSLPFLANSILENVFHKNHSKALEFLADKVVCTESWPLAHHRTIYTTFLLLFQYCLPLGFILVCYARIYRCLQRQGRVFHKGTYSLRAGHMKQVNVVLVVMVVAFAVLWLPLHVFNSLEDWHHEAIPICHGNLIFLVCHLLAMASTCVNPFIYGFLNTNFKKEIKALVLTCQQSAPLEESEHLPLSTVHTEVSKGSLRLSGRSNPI

For orientation: EC50 means the concentration needed to bring the measured effect to its halfway point. A high value points to a less potent agent. Regarding `CCCCCCCCCCCCCCCCCCCC(=O)N[C@@H](CCC(=O)O)C(=O)N[C@@H](CCC(=O)O)C(=O)N[C@H](C(=O)N[C@@H](CCCCNC(=O)CCOCCOCCOCCOCCOCCOCCOCCOCCOCCOCCOCCOCCOCCOCCOCCOCCOCCOCCOCCOCCOCCOCCOCCOC)C(=O)N1CCN(c2ccc3ncn(CC(=O)N[C@@H](CCCNC(N)=O)C(=O)N[C@@H](Cc4c[nH]cn4)C(=O)N[C@@H](Cc4ccc(O)cc4)C(=O)N[C@@H](CC(C)C)C(=O)N[C@@H](CC(N)=O)C(=O)N[C@@H](Cc4c[nH]c5ccccc45)C(=O)N[C@H](C(=O)N[C@H](C(=O)N[C@@H](CCCNC(=N)N)C(=O)N[C@@H](CCC(N)=O)C(=O)N(C)[C@@H](CCCNC(=N)N)C(=O)N[C@@H](Cc4ccc(O)cc4)C(N)=O)[C@@H](C)O)C(C)C)c(=O)c3c2)CC1)[C@@H](C)CC` [Example 49], the concentration giving a half-maximal response (EC50) is more than 9000 nM on Y1R; more than 9000 nM at Y4R; 518 nM at Y5R; 0.25 nM at hNPY2R [1]; 0.098 nM at hNPY2R [2]. Moreover, the “Y5R FLIPR agonist character (partial agonist mark)” value at Y5R (FLIPR) was “P.A”.

`CCCCCCCCCCCCCCCCCCCC(=O)N[C@@H](CCC(=O)O)C(=O)N[C@@H](CCC(=O)O)C(=O)N[C@H](C(=O)N[C@@H](CCCCNC(=O)CCOCCOCCOCCOCCOCCOCCOCCOCCOCCOCCOCCOCCOCCOCCOCCOCCOCCOCCOCCOCCOCCOCCOCCOC)C(=O)N1CCN(c2ccc3ncn(CC(=O)N[C@@H](CCCNC(N)=O)C(=O)N[C@@H](Cc4c[nH]cn4)C(=O)N[C@@H](Cc4ccc(O)cc4)C(=O)N[C@@H](CC(C)C)C(=O)N[C@@H](CC(N)=O)C(=O)N[C@@H](Cc4c[nH]c5ccccc45)C(=O)N[C@H](C(=O)N[C@H](C(=O)N[C@@H](CCC(=O)NC(=N)N)C(=O)N[C@@H](CCC(N)=O)C(=O)N(C)[C@@H](CCCNC(=N)N)C(=O)N[C@@H](Cc4ccc(O)cc4)C(N)=O)[C@@H](C)O)C(C)C)c(=O)c3c2)CC1)[C@@H](C)CC` [Example 51] (Arachidoyl-EEIK(MeO(CH2CH2O)23CH2CH2CO)[X1][Cit]HYLNWVTE(Guanidino)Q[NMeR]Y-NH2): the concentration for a half-maximal effect (EC50) at Y1R was more than 6000 nM; on Y4R, more than 6000 nM; at Y5R, more than 6000 nM; on hNPY2R [1] it was 5.5 nM; on hNPY2R [2], 9.4 nM.

As to `CCCCCCCCCCCCCCCCCCCC(=O)N[C@@H](CCC(=O)O)C(=O)N[C@@H](CCC(=O)O)C(=O)N[C@H](C(=O)N[C@@H](CCCCNC(=O)CCOCCOCCOCCOCCOCCOCCOCCOCCOCCOCCOCCOCCOCCOCCOCCOCCOCCOCCOCCOCCOCCOCCOCCOC)C(=O)N1CCN(c2ccc3ncn(CC(=O)N[C@@H](CCCNC(=N)N)C(=O)N[C@@H](Cc4c[nH]cn4)C(=O)N[C@@H](Cc4ccc(O)cc4)C(=O)N[C@@H](CC(C)C)C(=O)N[C@@H](CC(N)=O)C(=O)N[C@@H](Cc4c[nH]c5ccccc45)C(=O)N[C@H](C(=O)N[C@H](C(=O)N[C@@H](CCCNC(=N)N)C(=O)N[C@@H](CCC(N)=O)C(=O)N(C)[C@@H](CCCNC(=N)N)C(=O)N[C@@H](Cc4ccc(O)cc4)C(N)=O)[C@@H](C)O)C(C)C)c(=O)c3c2)CC1)[C@@H](C)CC` [Example 52], the half-maximal effective concentration (EC50) at Y1R was more than 9000 nM; on Y4R, more than 9000 nM; on Y5R it was 4260 nM; on hNPY2R [1], 0.2 nM; at hNPY2R [2], 0.147 nM.

As for `CCCCCCCCCCCCCCCCCCCC(=O)N[C@@H](CCC(=O)O)C(=O)N[C@@H](CCC(=O)O)C(=O)N[C@@H](C(=O)N[C@@H](CCCCNC(=O)CCOCCOCCOCCOCCOCCOCCOCCOCCOCCOCCOCCOCCOCCOCCOCCOCCOCCOCCOCCOCCOCCOCCOCCOC)C(=O)N1CCN(c2ccc3ncn(CC(=O)N[C@@H](CCCNC(=N)N)C(=O)N[C@@H](Cc4c[nH]cn4)C(=O)N[C@@H](Cc4ccc(O)cc4)C(=O)N[C@@H](CC(C)C)C(=O)N[C@@H](CC(N)=O)C(=O)N[C@@H](Cc4c[nH]c5ccccc45)C(=O)N[C@H](C(=O)N[C@H](C(=O)N[C@@H](CCCNC(=N)N)C(=O)N[C@@H](CCC(N)=O)C(=O)N(C)[C@@H](CCCNC(=N)N)C(=O)N[C@@H](Cc4ccc(O)cc4)C(N)=O)[C@@H](C)O)C(C)C)c(=O)c3c2)CC1)[C@@H](C)CC` [Example 53], the EC50 at Y1R is more than 6000 nM; at Y4R it was more than 6000 nM; on Y5R it was more than 6000 nM; at hNPY2R [1], 0.56 nM; at hNPY2R [2] it was 0.66 nM.

For `CCCCCCCCCCCCCCCCCCCC(=O)N[C@@H](CCC(=O)O)C(=O)N[C@@H](CCC(=O)O)C(=O)N[C@H](C(=O)N[C@@H](CCCCNC(=O)CCOCCOCCOCCOCCOCCOCCOCCOCCOCCOCCOCCOC)C(=O)N1CCN(c2ccc3ncn(CC(=O)N[C@@H](CCCNC(=N)N)C(=O)N[C@@H](Cc4c[nH]cn4)C(=O)N[C@@H](Cc4ccc(O)cc4)C(=O)N[C@@H](Cc4c[nH]cn4)C(=O)N[C@@H](CC(N)=O)C(=O)N[C@@H](Cc4c[nH]c5ccccc45)C(=O)N[C@H](C(=O)N[C@H](C(=O)N[C@@H](CCCNC(=N)N)C(=O)N[C@@H](CCC(N)=O)C(=O)N[C@@H](CCCNC(=N)N)C(=O)N[C@@H](Cc4ccc(O)cc4)C(N)=O)[C@@H](C)O)C(C)C)c(=O)c3c2)CC1)[C@@H](C)CC` [Example 55] (Arachidoyl-EEIK(CH3O(CH2CH2O)11CH2CH2CO)[X1]RHYHNWVTRQRY-NH2), the concentration for a half-maximal effect (EC50) at Y1R was more than 6000 nM; on Y4R, more than 6000 nM; on Y5R it was 8.66 nM; on hNPY2R [1], 0.014 nM; on hNPY2R [2], 0.027 nM.

As for `CCCCCCCCCCCCCCCCCCCC(=O)N[C@@H](CCC(=O)O)C(=O)N[C@@H](CCC(=O)O)C(=O)N[C@H](C(=O)N[C@@H](CCCCNC(=O)CCOCCOCCOCCOCCOCCOCCOCCOCCOCCOCCOCCOCCOCCOCCOCCOC)C(=O)N1CCN(c2ccc3ncn(CC(=O)N[C@@H](CCCNC(=N)N)C(=O)N[C@@H](Cc4c[nH]cn4)C(=O)N[C@@H](Cc4ccc(O)cc4)C(=O)N[C@@H](Cc4c[nH]cn4)C(=O)N[C@@H](CC(N)=O)C(=O)N[C@@H](Cc4c[nH]c5ccccc45)C(=O)N[C@H](C(=O)N[C@H](C(=O)N[C@@H](CCCNC(=N)N)C(=O)N[C@@H](CCC(N)=O)C(=O)N[C@@H](CCCNC(=N)N)C(=O)N[C@@H](Cc4ccc(O)cc4)C(N)=O)[C@@H](C)O)C(C)C)c(=O)c3c2)CC1)[C@@H](C)CC` [Example 56], the EC50 on Y1R is more than 6000 nM; at Y4R, more than 6000 nM; at Y5R it was 8.73 nM; on hNPY2R [1], 0.013 nM; at hNPY2R [2] it was 0.098 nM.

`CCCCCCCCCCCCCCCCCCCC(=O)N[C@@H](CCC(=O)O)C(=O)N[C@@H](CCC(=O)O)C(=O)N[C@H](C(=O)N[C@@H](CCCCNC(=O)CCOCCOCCOCCOCCOCCOCCOCCOCCOCCOCCOCCOCCOCCOCCOCCOCCOCCOCCOCCOCCOCCOCCOCCOC)C(=O)N1CCN(c2ccc3ncn(CC(=O)N[C@@H](CCCNC(=N)N)C(=O)N[C@@H](Cc4c[nH]cn4)C(=O)N[C@@H](Cc4ccc(O)cc4)C(=O)N[C@@H](Cc4c[nH]cn4)C(=O)N[C@@H](CC(N)=O)C(=O)N[C@@H](Cc4c[nH]c5ccccc45)C(=O)N[C@H](C(=O)N[C@H](C(=O)N[C@@H](CCCNC(=N)N)C(=O)N[C@@H](CCC(N)=O)C(=O)N[C@@H](CCCNC(=N)N)C(=O)N[C@@H](Cc4ccc(O)cc4)C(N)=O)[C@@H](C)O)C(C)C)c(=O)c3c2)CC1)[C@@H](C)CC` [Example 57] (Arachidoyl-EEIK(MeO(CH2CH2O)23CH2CH2CO)[X1]RHYHNWVTRQRY-NH2): the EC50 on Y1R is more than 6000 nM; on Y4R it was more than 6000 nM; at Y5R, 5.67 nM; on hNPY2R [1] it was 0.011 nM; on hNPY2R [2], 0.016 nM.
